{"source": "patent US8318741B2", "about": "“Therapeutic compositions and methods” (The Texas A & M University System, priority 2005, dated 2012)", "key": {"[1]": {"test_system": "choroidal neovascularization in rat eyes"}, "[2]": {"test_system": "ocular hypertensive rabbit eyes", "assay": "Choroidal blood flow in ocular hypertensive rabbit eyes (colored microspheres)", "format": "in vivo, New Zealand white rabbits", "details": "for Time after administration over which the action on choroidal blood flow lasted / Choroidal Blood Flow, 30 min / Choroidal Blood Flow, 60 min / Choroidal Blood Flow, 120 min / Choroidal Blood Flow, 180 min: 50 μl, 1% topically; for Choroidal Blood Flow, 30 min / Choroidal Blood Flow, 60 min / Choroidal Blood Flow, 120 min / Choroidal Blood Flow, 180 min: vehicle controls at 100%, mean ± SD, N = 6"}, "rat eyes": {"test_system": "rat eyes", "assay": "Retinal function recovery after ischemic insult in rat eyes (ERG b-wave)", "details": "10 mg/kg ip; for Retinal Function Recovery After Ischemic Insult, Treated: Mean ± SD, N = 6; for Retinal Function Recovery, Net increase (%): treated versus control"}, "IL-1 induced uveitis": {"test_system": "IL-1 induced uveitis", "assay": "Interleukin-1 induced uveitis", "format": "in vivo, Sprague-Dawley rats", "details": "20 mg/kg t.i.d."}, "guinea pigs": {"test_system": "guinea pigs", "details": "known before the Draize test; cited from earlier work"}, "[3]": {"test_system": "carrageenin induced inflammation", "assay": "Carrageenin-induced inflammation (paw edema)", "format": "in vivo, Sprague Dowley rats", "method": "Forty female Sprague Dowley rats weighing 164±16 g were used for the experiments. The test and control groups were assigned randomly. Carrageenin (0.1 mL of 1% solution) was injected into the plantar surface of the rat hind paw to induce inflammation. Ten minutes before carrageenin injection, 8 mL of water administered ig. […] The changes in volume of the inflamed edematous foot were measured by the volume of water displaced and recorded at 0, 0.5, 1, 2, 4, and 6 h after the carrageenin injection."}, "mice": {"test_system": "mice", "assay": "LD50 determination / acute oral toxicity", "format": "in vivo", "method": "LD50 determination: For each dose, 20 mice of either sex, weighing 18-20 g were used to determined the LD50 according to the method of Litchfield & Wilcoxon, J. Pharmacol. Exp. Ther. 96:99-113 (1949). Animals were housed in an animal room at 25° C. and 70% relative humidity. The light cycle was set for 12 h light and 12 h darkness."}, "[4]": {"test_system": "trabeculectomy failure caused by inflammation", "design": "species or system Dutch Belted rabbits", "details": "rabbit, in vivo"}, "[5]": {"details": "at various dose levels, AMD rat model"}, "[6]": {"details": "Flavonoids, 30 min after administration"}, "[7]": {"details": "N-nitro-azoles and C-nitropyrazoles, 30 min"}, "[8]": {"details": "N-nitro-azoles and C-nitropyrazoles"}, "[9]": {"details": "N-Nitropyrazoles and C-Nitropyrazoles, b-wave recovery after 30 min ischemia"}, "[10]": {"details": "N-Nitropyrazoles and C-Nitropyrazoles"}}, "note": "Where two headings read alike, the source gives them in different places. Marks after values point to notes of the source that are not given here.", "data": [{"smiles": "CC(C)(C)NC[C@@H](O)COc1nsnc1N1CCOCC1", "note": "[D-Timolol, (2R)-1-[(4-morpholin-4-yl-1,2,5-thiadiazol-3-yl)oxy]-3-(tert-butylamino)propan-2-ol]", "values": [{"measurement": "Inhibition of CNV formation", "setting": "[1]; 15 mg/kg i.p. once a day for 4 weeks", "result": "effective in inhibiting some CNV formation but not as potent as hydralazine or guanabenz"}, {"measurement": "Inhibition of CNV formation", "setting": "[1]; [5]", "result": "potent inhibition of CNV formation"}]}, {"smiles": "NC(N)=NN=Cc1c(Cl)cccc1Cl", "note": "[Guanabenz, 2-[(2,6-dichlorophenyl)methylideneamino]guanidine]", "values": [{"measurement": "Inhibition of CNV formation", "setting": "[1]; 20 mg/kg i.p. once a day for 4 weeks, eight laser lesions", "result": "All eight CNV formations were inhibited"}, {"measurement": "Inhibition of CNV formation", "setting": "[1]; 20 mg/kg i.p. once a day for 4 weeks, eight laser lesions, listed as guanabenz", "result": "inhibition of CNV formation"}, {"measurement": "Inhibition of CNV formation", "setting": "[1]; [5]", "result": "potent inhibition of CNV formation"}]}, {"smiles": "O=C1CC(c2ccc(O)cc2)Oc2cc(O)cc(O)c21", "note": "(stereo not shown) [Naringenin, 5,7-dihydroxy-2-(4-hydroxyphenyl)chroman-4-one]", "values": [{"measurement": "Time after administration over which the action on choroidal blood flow lasted", "setting": "[2]", "result": "at least 2 hrs"}, {"measurement": "Choroidal Blood Flow, 30 min", "setting": "[2]; [6]", "result": "102.5 ± 22.0^e* %"}, {"measurement": "Choroidal Blood Flow, 60 min", "setting": "[2]; Flavonoids", "result": "226.1 ± 55.0", "unit": "%"}, {"measurement": "Choroidal Blood Flow, 120 min", "setting": "[2]; Flavonoids", "result": "124.2 ± 74.5", "unit": "%"}, {"measurement": "Choroidal Blood Flow, 180 min", "setting": "[2]; Flavonoids", "result": "137.4 ± 712", "unit": "%"}, {"measurement": "Onset / latent period of the increase of choroidal blood flow", "setting": "[2]; after drug administration", "result": 30, "unit": "min"}, {"measurement": "Time of peak effect on choroidal blood flow", "setting": "[2]; after drug administration", "result": 60, "unit": "min"}, {"measurement": "Increase of choroidal blood flow at the peak, of the original blood flow", "setting": "[2]; at the peak (60 min after drug administration)", "result": "more than 200%"}, {"measurement": "Retinal Function Recovery After Ischemic Insult, Treated", "setting": "rat eyes; Flavonoids, b-wave recovery relative to original level after 30 min ischemia", "result": "54.0 ± 17.8", "unit": "%"}, {"measurement": "Retinal Function Recovery, Net increase (%)", "setting": "rat eyes; Flavonoids", "result": 66.1, "unit": "%"}, {"measurement": "Inhibition of CNV formation", "setting": "[1]; 30 mg/kg i.p., eight laser lesions", "result": "marked inhibition of CNV formation"}, {"measurement": "Inhibition of CNV formation", "setting": "[1]; [5]", "result": "potent inhibition of CNV formation"}]}, {"smiles": "CONC(=O)c1ccn([N+](=O)[O-])n1", "note": "[DN-6, N-methoxy-1-nitro-1H-pyrazole-3-carboxamide]", "values": [{"measurement": "Choroidal Blood Flow, 30 min", "setting": "[2]; [7]", "result": "56.9 ± 17.5^e %"}, {"measurement": "Choroidal Blood Flow, 60 min", "setting": "[2]; [8]", "result": "61.8 ± 20.9", "unit": "%"}, {"measurement": "Choroidal Blood Flow, 120 min", "setting": "[2]; [8]", "result": "88.3 ± 34.1", "unit": "%"}, {"measurement": "Choroidal Blood Flow, 180 min", "setting": "[2]; [8]", "result": "128.5 ± 60.0", "unit": "%"}, {"measurement": "Retinal Function Recovery After Ischemic Insult, Treated", "setting": "rat eyes; [9]", "result": "64.0 ± 24.9", "unit": "%"}, {"measurement": "Retinal Function Recovery, Net increase (%)", "setting": "rat eyes; [10]", "result": 94.5, "unit": "%"}]}, {"smiles": "O=c1c(-c2ccc(O)cc2)coc2c([C@@H]3O[C@H](CO)[C@@H](O)[C@H](O)[C@H]3O)c(O)ccc12", "note": "[Puerarin]", "values": [{"measurement": "Time after administration over which the action on choroidal blood flow lasted", "setting": "[2]", "result": "> 3", "unit": "h"}, {"measurement": "Choroidal Blood Flow, 30 min", "setting": "[2]; [6]", "result": "30.9 ± 7.7", "unit": "%"}, {"measurement": "Choroidal Blood Flow, 60 min", "setting": "[2]; Flavonoids", "result": "114.9 ± 21.5", "unit": "%"}, {"measurement": "Choroidal Blood Flow, 120 min", "setting": "[2]; Flavonoids", "result": "160.8 ± 70.7", "unit": "%"}, {"measurement": "Choroidal Blood Flow, 180 min", "setting": "[2]; Flavonoids", "result": "127.4 ± 65.5", "unit": "%"}, {"measurement": "Start of action on choroidal blood flow", "setting": "[2]; after administration", "result": 1, "unit": "h"}, {"measurement": "Retinal Function Recovery After Ischemic Insult, Treated", "setting": "rat eyes; Flavonoids, b-wave recovery relative to original level after 30 min ischemia, 10 mg/kg", "result": "90.0 ± 17.2", "unit": "%"}, {"measurement": "Retinal Function Recovery After Ischemic Insult, Treated", "setting": "rat eyes; Flavonoids, b-wave recovery relative to original level after 30 min ischemia, listed as puerarin, 10 mg/kg", "result": 90, "unit": "%"}, {"measurement": "Retinal Function Recovery, Net increase (%)", "setting": "rat eyes; Flavonoids", "result": 190.3, "unit": "%"}]}, {"smiles": "C[C@]12C=CC(=O)C=C1CC[C@@H]1[C@@H]2[C@@H](O)C[C@@]2(C)[C@H]1CC[C@]2(O)C(=O)CO", "note": "[prednisolone]", "values": [{"measurement": "Blockade of IL-1 induced uveitis", "setting": "IL-1 induced uveitis", "result": "blocked effectively"}, {"measurement": "Minimal dose required to produce inhibition of CNV formation", "setting": "[1]; i.p.", "result": 3, "unit": "mg/kg"}]}, {"smiles": "NNc1nncc2ccccc12", "note": "[Hydralazine, phthalazin-1-ylhydrazine]", "values": [{"measurement": "Inhibition of CNV formation", "setting": "[1]; 5 mg/kg i.p. once a day for 4 weeks, eight laser lesions", "result": "four out of eight"}, {"measurement": "Inhibition of CNV formation", "setting": "[1]; 10 mg/kg i.p., eight laser lesions", "result": "inhibited all CNV formation effectively"}, {"measurement": "Inhibition of CNV formation", "setting": "[1]; 10 mg/kg i.p., eight laser lesions, listed as hydralazine", "result": "inhibition of CNV formation"}, {"measurement": "Inhibition of CNV formation", "setting": "[1]; [5]", "result": "potent inhibition of CNV formation"}]}, {"smiles": "CC1(Br)CSC(=Nc2ccccc2)N(c2ccccc2)C1=O", "note": "(stereo not shown) [CK-17, 5-bromo-5-methyl-3-phenyl-2-phenylimino-1,3-thiazinan-4-one]", "values": [{"measurement": "Skin irritation", "setting": "guinea pigs", "result": "did not produce skin irritation"}, {"measurement": "Potency relative to aspirin", "setting": "[3]; carrageenin induced inflammation", "result": "about 10 times"}, {"measurement": "Inhibition of carrageenin induced inflammation", "setting": "[3]; ip 3 times before carrageenin", "result": "very effective in inhibiting carrageenin induced inflammation"}, {"measurement": "Toxic response", "setting": "mice; 20 g/kg given orally, observed at least 7 days", "result": "did not cause any toxic response"}, {"measurement": "LD50 equivalent for man", "setting": "mice; orally, extrapolated to man", "result": "≥ 1,400 g/70 kg"}, {"measurement": "Delay of trabeculectomy failure", "setting": "[4]", "result": "prolonged the appearance of trabeculectomy failure"}, {"measurement": "Delay of trabeculectomy failure relative to prednisolone", "setting": "[4]", "result": "more effective than prednisolone"}, {"measurement": "Effective dose to inhibit CNV formation", "setting": "[1]; rat, in vivo, ip", "result": 30, "unit": "mg/kg"}]}, {"smiles": "O=C(O)c1ccn([N+](=O)[O-])n1", "note": "[DN-7, 1-nitro-1H-pyrazole-3-carboxylic acid]", "values": [{"measurement": "Choroidal Blood Flow, 30 min", "setting": "[2]; [7]", "result": "42.0 ± 13.7", "unit": "%"}, {"measurement": "Choroidal Blood Flow, 60 min", "setting": "[2]; [8]", "result": "57.2 ± 3.7", "unit": "%"}, {"measurement": "Choroidal Blood Flow, 120 min", "setting": "[2]; [8]", "result": "80.5 ± 23.1", "unit": "%"}, {"measurement": "Choroidal Blood Flow, 180 min", "setting": "[2]; [8]", "result": "87.3 ± 29.6", "unit": "%"}, {"measurement": "Retinal Function Recovery After Ischemic Insult, Treated", "setting": "rat eyes; [9]", "result": "71.4 ± 20.2", "unit": "%"}, {"measurement": "Retinal Function Recovery, Net increase (%)", "setting": "rat eyes; [10]", "result": 117.0, "unit": "%"}]}]}
